Laboratory results published in patent publication US20250161297A1, “COMPOSITIONS AND METHODS FOR INHIBITING FSP1” (THE REGENTS OF THE UNIVERSITY OF CALIFORNIA, priority 2022, published 2025).
Entries after “also recorded” stand apart in the source; their conditions may differ. Residues, ends and D or L forms follow the SMILES beside them. *: point of attachment. Cbz = O=C(OCc1ccccc1)*; CH2F = FC*

How the values were obtained:
[1] = system: H460^C cells; assay: DHA- and FINO2-induced cell death with FSEN1 co-treatment; type: cell-based
Method: (§1) For cell-based screen, cells were seeded in triplicate at a density of 500-750 cells per 50 μL per well in black 384-well plates (NUNC) and (Corning) 24 hr before start of imaging. After 24 hr, an additional 50 μL of drug infused medium containing 30 nM SYTOX Green Dead Cell Stain was carefully placed into the wells on top of existing medium. The plates were immediately transferred to an IncuCyte S3 imaging system (Essen Bioscience) enclosed in an incubator set to 37° C. and 5% CO2. One image per well were captured in the phase, green, and red channels every 1.5 or 3 hr over a 24 hr period, and the ratio of SYTOX Green-positive objects (dead cells) to SYTOX Green-positive plus Sg-SAFE mCherry-positive objects (total cells) was quantified using S3 image analysis software (Essen Bioscience). For each treatment condition, the SYTOX-to-′SYTOX+mCherry′-object ratio was plotted against the 24 hr imaging interval, the Area Under the Curve (AUC) was calculated and the average AUC was plotted using Prism (GraphPad). To calculate the half-maximal effective concentration (EC50) values, the AUC curve was fit to a variable slope function comparing response to drug concentration.
(§2) Synergy experiments: For cell-based synergy experiments, cells were seeded at a density of 750 cells per 25 μL per well in four black 384-well plates (Corning) 24 hr before start of imaging. After 24 hr, an additional 25 μL of drug infused medium containing 30 nM SYTOX Green Dead Cell Stain was carefully placed into the wells on top of existing medium. The plates were immediately transferred to an IncuCyte S3 imaging system (Essen Bioscience) enclosed in an incubator set to 37° C. and 5% CO2. One image per well were captured in the phase, green, and red channels every 4 hr over a 24 hr period, and the ratio of SYTOX Green-positive objects (dead cells) to SYTOX Green-positive plus Sg-SAFE mCherry-positive objects (total cells) was quantified using S3 image analysis software (Essen Bioscience). For each treatment condition, the SYTOX-to-′SYTOX+mCherry′-object ratio was plotted against the 24 hr imaging interval, the Area Under the Curve (AUC) was calculated, and the average AUC was plotted as a function of drug concentration (for example, RSL3) using Prism (GraphPad). To calculate the half-maximal effective concentration (EC50) values, the AUC curve was fit to a variable slope function comparing response to drug concentration.

[2] = system: H460^C FSP1^KO cells; assay: FDA and Bioactive Library synthetic lethal screen; type: cell-based; settings: 24 h
Method: FDA and Bioactive Library Screen: For FDA and Bioactive Library Screen experiments, cells were seeded at a density of 750 cells per 25 uL per well in black 384-well plates (NUNC) and (Corning) 24 hr before start of imaging. After 24 hr, an additional 25 μL of drug infused medium containing 30 nM SYTOX Green Dead Cell Stain was carefully placed into the wells on top of existing medium. The plates were immediately transferred to an IncuCyte S3 imaging system (Essen Bioscience) enclosed in an incubator set to 37° C. and 5% CO2. One image per well were captured in the phase, green, and red channels every 4 hr over a 24 hr period, and the ratio of SYTOX Green-positive objects (dead cells) to SYTOX Green-positive plus SgSAFE mCherry-positive objects (total cells) was quantified using S3 image analysis software (Essen Bioscience). For each treatment condition, the SYTOX-to-‘SYTOX+mCherry’-object ratio was plotted against the 24 hr imaging interval, the Area Under the Curve (AUC) was calculated, and the average AUC was plotted as a function of drug concentration (for example, RSL3) using Prism (GraphPad). To calculate the half-maximal effective concentration (EC50) values, the AUC curve was fit to a variable slope function comparing response to drug concentration. […]

[3] = system: panel of cancer cell lines of various tissue origins; assay: RSL3-induced cell death in a panel of cancer cell lines; type: cell-based; settings: RSL3 plus FSEN1; 2 μM Fer-1
Method: as §1, with “concentration. […]” for “concentration.”

[4] = system: H460^C cells; assay: GPX4 inhibitor-induced cell death with FSEN1 co-treatment; type: cell-based
Method: as §1, §2

[5] = system: H460^C Cas9 cells; assay: cell-based assay, cell death in control cells
Method: as §1, with “concentration. […]” for “concentration.”
Employing this assay, the amount of cell death induced by 168 FSP1 inhibitors in the H460^C Cas9 and H460^C GPX4^KO cells was assessed. […]

[6] = target: T1, His tagged FSP1 (WT) protein (Homo sapiens, UniProt Q9BRQ8); assay: in vitro FSP1 activity assay (NADH oxidation during CoQ1 reduction, 355 nm absorbance); type: biochemical; settings: inhibition of FSP1 Coenzyme Q1 oxidoreductase activity in vitro
T1 construct: made in house; host or cells: E. coli LOBSTR-BL21 (DE3)
T1 sequence (Q9BRQ8 1-373): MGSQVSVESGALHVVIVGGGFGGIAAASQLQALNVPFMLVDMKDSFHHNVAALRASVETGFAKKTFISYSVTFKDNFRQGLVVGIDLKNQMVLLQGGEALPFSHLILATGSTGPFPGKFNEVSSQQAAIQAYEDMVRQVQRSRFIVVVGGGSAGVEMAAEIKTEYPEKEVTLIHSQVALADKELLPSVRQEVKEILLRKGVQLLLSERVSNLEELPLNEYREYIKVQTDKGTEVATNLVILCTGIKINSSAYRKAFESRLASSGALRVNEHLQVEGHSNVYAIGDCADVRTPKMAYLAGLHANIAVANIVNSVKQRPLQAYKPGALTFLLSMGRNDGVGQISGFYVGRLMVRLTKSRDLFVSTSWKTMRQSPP
Method: For small molecule drug screen, 0.5 μL of compounds were stamped into 384 well NBS plates (Corning) in dose response diluted 2-fold with a high of 2 mM. 60 mL of purified His tagged FSP1 (WT) protein at 50 nM was prepared and 12.5 μL of this protein solution was aliquoted into 384 well NBS-plates (Corning) containing compound and allowed to incubate for 30 min at room temperature. After 30 min incubation 12.5 μL of reaction buffer (1 mM NADH, 800 µM CoQ1) was added into the 384 well NBS-plates containing protein and compounds for a final concentration of 25 nM His tagged FSP1 (WT) protein, 500 µM NADH (Sigma-Aldrich) and 400 µM CoQ1 (Sigma-Aldrich). Each well contained a 25 μL mixture and 40 µM compound in the primary screen. […] Measurements were taken at 355 nm with a EnVision 2104 multilabel plate reader (PerkinElmer). […] Compounds with confirmed data that have normalized absorbance values of less than 0.164 were chosen for dose response. […]
To measure NADH oxidation kinetics, 25 nM recombinant FSP1 was combined with 500 µM NADH and C400 µM Coenzyme Q1 in a total volume of 100 μl PBS. The change in absorbance at 355 nm, corresponding to NADH oxidation, was determined over the course of 4 h. All measurements were taken using a SpectraMax i3 Multi-Mode Platform plate reader (Molecular Devices). […]

[7] = system: H460^C GPX4^KO cells; assay: cell-based assay of FSP1 activity, cell death (SYTOX Green/mCherry lethal fraction)
Method: as §1
In addition to the in vitro activity assay, an orthogonal cell-based assay of FSP1 activity was also developed. […]

Molecule | effect on cell death induced by DHA and FSEN1 together [1] | effect on cell death induced by co-treatment of FSEN1 with RSL3 [4] | also measured
C[C@H]1[C@@H](O)O[C@@H]2O[C@@]3(C)CC[C@H]4[C@H](C)CC[C@@H]1[C@@]24OO3 [DHA, dihydroartemisinin] | – | – | EC50 ([1]; DHA and FSEN1 treatment together): 21.3 µM; cytotoxicity in H460^C FSP1^KO cells [2]: selectively induced cell death
CCOC(=O)c1ccc(NC2CCCCC2)c(N)c1 [ferrostatin-1] | strongly suppressed | blocked | effect on cell death by co-treatment [3]: rescued
COC(=O)c1ccc([C@@H]2c3[nH]c4ccccc4c3C[C@@H](C(=O)OC)N2C(=O)CCl)cc1 [RSL3] | – | – | cytotoxicity in H460^C FSP1^KO cells [2]: cytotoxic
tocopherol | strongly suppressed | blocked | –
COC(=O)C[C@H](NC(=O)[C@H](C)NC(=O)[C@@H](NC(=O)OCc1ccccc1)C(C)C)C(=O)CF [Z-VAD] (Cbz-Val-Ala-Asp(OMe)-CH2F) | – | no effect | –
COC1=C(OC)C(=O)C(CCCCCCCCCCO)=C(C)C1=O [idebenone] | strongly suppressed | blocked | –
CN1C(=O)NC(Cc2c[nH]c3c(Cl)cccc23)C1=O (stereo not drawn) [Nects] | – | no effect | –
Cc1ccc(-c2c(C#N)c(N)n3c(nc4ccccc43)c2C#N)cc1 [iFSP1] | – | – | cell death in H460^C Cas9 cells [5]: but not in the H460^C Cas9 cells; IC50 [6]: 4.01 µM; cell death in H460^C GPX4^KO cells [7]: sufficient to trigger ferroptosis; also recorded: selectively triggered cell death
